Laboratory results taken from DBAASP.
In brackets after ≈: the same amount, converted by molar mass. Several values for one entry are separate records, joined by “and”; a condition that tells them apart may be missing. Equal entries are not always repeated. Values belong to the molecule of their own block, whether it stands above or below them.

How the values were obtained:
Assay in all cases: ≥ marks a high value that may be exact or a test limit, other limits are often not marked, values filed in µg/mL are converted to µM
[1] = test system: Bifidobacterium longum subsp. infantis
Escherichia coli = test system: Escherichia coli
Staphylococcus aureus = test system: Staphylococcus aureus
Bacillus cereus = test system: Bacillus cereus
Leuconostoc lactis = test system: Leuconostoc lactis
Listeria innocua = test system: Listeria innocua
Micrococcus luteus = test system: Micrococcus luteus
Pasteurella multocida = test system: Pasteurella multocida
[2] = test system: Staphylococcus epidermidis
Streptococcus uberis = test system: Streptococcus uberis
[3] = test system: Acinetobacter baumannii 97830
[4] = test system: Acinetobacter baumannii 9931
[5] = test system: Acinetobacter baumannii ATCC 19606
[6] = test system: Bacillus subtilis ATCC 23857
Escherichia coli 780 = test system: Escherichia coli 780
Escherichia coli 804 = test system: Escherichia coli 804
[7] = test system: Klebsiella pneumoniae ATCC 700603
[8] = test system: Pseudomonas aeruginosa 50
[9] = test system: Pseudomonas aeruginosa 73
[10] = test system: Pseudomonas aeruginosa ATCC 27853
[11] = test system: Pseudomonas aeruginosa ATCC 9027
[12] = test system: Staphylococcus aureus 113
Staphylococcus aureus 75 = test system: Staphylococcus aureus 75
[13] = test system: Staphylococcus aureus ATCC 29213
[14] = test system: Staphylococcus epidermidis ATCC 12228
[15] = test system: Acinetobacter baumannii ATCC 7978
[16] = test system: Enterococcus faecium E007
[17] = test system: Klebsiella pneumoniae WGLW2
[18] = test system: Staphylococcus aureus ATCC 29231
[19] = test system: Staphylococcus aureus MW2
[20] = test system: Candida albicans ATCC 10231
[21] = test system: Cryptococcus neoformans ATCC 32264
[22] = test system: Escherichia coli ATCC 25922
[23] = test system: Salmonella enterica subsp. enterica serovar Enteritidis
Salmonella sp. = test system: Salmonella sp.
[24] = test system: Staphylococcus aureus ATCC 43300
Yersinia enterocolitica = test system: Yersinia enterocolitica
[25] = test system: Candida albicans TIMM 0144
[26] = test system: Staphylococcus aureus JCM 2151
[27] = test system: Trichophyton mentagrophytes TIMM 1189
[28] = test system: Bacillus subtilis CCT 2471
Candida albicans = test system: Candida albicans
[29] = test system: Enterobacter cloacae ATCC 23355
[30] = test system: Escherichia coli CCT 1371
[31] = test system: Klebsiella pneumoniae ATCC 13883
[32] = test system: Staphylococcus aureus ATCC 6535
[33] = test system: Staphylococcus saprophyticus
Fusarium graminearum = test system: Fusarium graminearum
[34] = test system: Yersinia enterocolitica ATCC 23715

SMILES: NCCCC[C@H](NC(=O)CNC(=O)[C@H](Cc1ccccc1)NC(=O)[C@H](CCCCN)NC(=O)[C@@H](N)CCC(=O)O)C(=O)N[C@@H](CC(=O)O)C(=O)N[C@@H](CCCCN)C(=O)N[C@@H](CO)C(=O)N1CCC[C@H]1C(=O)N[C@@H](CCCCN)C(=O)N[C@@H](Cc1ccccc1)C(=O)N[C@@H](CCC(N)=O)C(=O)O [EKFGKDKSPKFQ]
- MIC [1]: ≥ 2090 µM
- MIC (Escherichia coli): 2090 µM (≈ 3000 µg/mL)
- MIC (Staphylococcus aureus): 2090 µM (≈ 3000 µg/mL)

SMILES: CC[C@H](C)[C@H](NC(=O)[C@H](CO)NC(=O)CNC(=O)[C@@H](NC(=O)[C@H](CC(C)C)NC(=O)CN)[C@@H](C)CC)C(=O)NCC(=O)N[C@@H](CCCCN)C(=O)N[C@@H](C)C(=O)N[C@@H](CC(C)C)C(=O)NCC(=O)NCC(=O)N[C@@H](CC(C)C)C(=O)N[C@@H](CC(C)C)C(=O)N[C@H](C(=O)N[C@@H](CC(=O)O)C(=O)N[C@H](C(=O)N[C@@H](CC(C)C)C(=O)N[C@@H](CCCCN)C(=O)N1CCC[C@H]1C(=O)N[C@@H](CCCCN)C(=O)N[C@@H](CC(C)C)C(=O)O)C(C)C)C(C)C [GLIGSIGKALGGLLVDVLKPKL]
- MIC (Bacillus cereus): ≥ 46.3 µM
- MIC (Escherichia coli): > 46.3 µM
- MIC (Leuconostoc lactis): 23.1 µM (≈ 50 µg/mL)
- MIC (Listeria innocua): ≥ 46.3 µM
- MIC (Micrococcus luteus): ≥ 46.3 µM
- MIC (Pasteurella multocida): ≥ 46.3 µM
- MIC (Staphylococcus aureus): > 46.3 µM
- MIC [2]: ≥ 46.3 µM
- MIC (Streptococcus uberis): ≥ 46.3 µM

SMILES: NCC(=O)N[C@@H](Cc1c[nH]c2ccccc12)C(=O)N[C@@H](CCCN=C(N)N)C(=O)N[C@@H](Cc1c[nH]c2ccccc12)C(=O)N[C@@H](Cc1c[nH]c2ccccc12)C(=O)N[C@@H](Cc1c[nH]c2ccccc12)C(=O)N[C@@H](CCCN=C(N)N)C(=O)N[C@@H](Cc1c[nH]c2ccccc12)C(=O)NCC(N)=O [GWRWWWRWG]
- MIC [3]: 16 µM (≈ 22 µg/mL)
- MIC [4]: 8 µM (≈ 11 µg/mL)
- MIC [5]: 32 µM (≈ 44 µg/mL)
- MIC [6]: 4 µM (≈ 5.5 µg/mL)
- MIC (Escherichia coli 780): 8 µM (≈ 11 µg/mL)
- MIC (Escherichia coli 804): 16 µM (≈ 22 µg/mL)
- MIC [7]: 32 µM (≈ 44 µg/mL)
- MIC [8]: ≥ 32 µM
- MIC [9]: ≥ 32 µM
- MIC [10]: 64 µM (≈ 88 µg/mL)
- MIC [11]: 64 µM (≈ 88 µg/mL)
- MIC [12]: 8 µM (≈ 11 µg/mL)
- MIC (Staphylococcus aureus 75): 8 µM (≈ 11 µg/mL)
- MIC [13]: 8 µM (≈ 11 µg/mL)
- MIC [14]: 8 µM (≈ 11 µg/mL)

SMILES: CC[C@H](C)[C@H](NC(=O)[C@H](CCCCN)NC(=O)[C@H](CCCCN)NC(=O)[C@H](CC(C)C)NC(=O)[C@@H](NC(=O)[C@H](CCCCN)NC(=O)[C@H](Cc1c[nH]c2ccccc12)NC(=O)[C@@H](N)CC(C)C)[C@@H](C)CC)C(=O)N[C@@H](Cc1c[nH]c2ccccc12)C(=O)N[C@@H](CCCN=C(N)N)C(=O)N[C@H](C(=O)N[C@@H](CC(C)C)C(=O)N[C@@H](CCCCN)C(=O)N[C@@H](CC(N)=O)C(=O)N[C@@H](Cc1c[nH]c2ccccc12)C(=O)N[C@@H](CCCN=C(N)N)C(=O)O)C(C)C [LWKILKKIWRVLKNWR]
- MIC [15]: ≥ 58.7 µM
- MIC [16]: ≥ 58.7 µM
- MIC [17]: 29.4 µM (≈ 64 µg/mL)
- MIC [18]: 14.7 µM (≈ 32 µg/mL)
- MIC [19]: 14.7 µM (≈ 32 µg/mL)

The remaining lines, values ahead:

- MIC [20]: 50 µM (≈ 70.7 µg/mL)
- MIC [21]: 25 µM (≈ 35.3 µg/mL)
- MIC [22]: > 50 µM
- MIC (Escherichia coli): 44.7 µM (≈ 63.2 µg/mL)
- MIC [10]: > 50 µM
- MIC [23]: ≥ 50 µM
- MIC (Salmonella sp.): 30 µM (≈ 42.4 µg/mL)
- MIC [13]: > 50 µM
- MIC [24]: > 50 µM
- MIC (Yersinia enterocolitica): ≥ 50 µM
SMILES: CC[C@H](C)[C@H](NC(=O)[C@H](CCC(N)=O)NC(=O)[C@@H](N)CCCN=C(N)N)C(=O)N[C@@H](CCCN=C(N)N)C(=O)N[C@@H](CCCN=C(N)N)C(=O)N[C@@H](Cc1c[nH]c2ccccc12)C(=O)N[C@@H](Cc1c[nH]c2ccccc12)C(=O)N[C@@H](CCC(N)=O)C(=O)N[C@@H](Cc1c[nH]c2ccccc12)C(N)=O [RQIRRWWQW]

- MIC [25]: ≥ 52 µM
- MIC [26]: 26 µM and 12.5 µM
- MIC [27]: 6.24 µM (≈ 6.26 µg/mL)
SMILES: CC(=O)N[C@@H](CCCN=C(N)N)C(=O)N[C@@H](CCCN=C(N)N)C(=O)N[C@@H](Cc1c[nH]c2ccccc12)C(=O)N[C@@H](Cc1c[nH]c2ccccc12)C(=O)N[C@@H](CS)C(=O)N[C@@H](CCCN=C(N)N)C(N)=O [RRWWCR]

- MIC [28]: 28.4 µM (≈ 30 µg/mL)
- MIC (Candida albicans): 2.37 µM (≈ 2.5 µg/mL)
- MIC [29]: 14.2 µM (≈ 15 µg/mL)
- MIC [30]: 14.2 µM (≈ 15 µg/mL)
- MIC [31]: 14.2 µM (≈ 15 µg/mL)
- MIC [10]: 14.2 µM (≈ 15 µg/mL)
- MIC [32]: 14.2 µM (≈ 15 µg/mL)
- MIC [33]: 9.48 µM (≈ 9.99 µg/mL)
SMILES: CC[C@H](C)[C@H](NC(=O)[C@H](CO)NC(=O)[C@@H](NC(=O)[C@H](CCCCN)NC(=O)[C@H](Cc1ccccc1)NC(=O)[C@@H]1CCCN1C(=O)[C@@H](N)[C@@H](C)O)[C@@H](C)CC)C(=O)N[C@@H](Cc1cnc[nH]1)C(=O)N[C@@H](CC(C)C)C(N)=O [TPFKISIHL]

- MIC (Fusarium graminearum): ≥ 70 µM
SMILES: NC(=O)C[C@H](NC(=O)CNC(=O)[C@H](Cc1ccccc1)NC(=O)[C@@H](N)Cc1c[nH]c2ccccc12)C(=O)N[C@@H](CS)C(=O)NCC(=O)N[C@@H](CC(N)=O)C(=O)N1CCC[C@H]1C(=O)N[C@@H](CCCN=C(N)N)C(=O)N[C@@H](Cc1cnc[nH]1)C(=O)N[C@@H](CS)C(=O)NCC(=O)O [WFGNCGNPRHCG]

- MIC [22]: 1.91 µM (≈ 3.13 µg/mL)
- MIC [34]: 3.83 µM (≈ 6.25 µg/mL)
SMILES: CC[C@H](C)[C@H](NC(=O)[C@@H]1CCCN1C(=O)[C@H](CC(N)=O)NC(=O)[C@H](Cc1cnc[nH]1)NC(=O)[C@@H](NC(=O)[C@@H]1CCCN1C(=O)[C@H](C)NC(=O)[C@H](CC(C)C)NC(=O)[C@@H]1CCCN1C(=O)[C@H](CCC(N)=O)NC(=O)[C@@H](NC(=O)[C@@H](NC(=O)[C@@H]1CCCN1C(=O)[C@@H](N)Cc1ccc(O)cc1)C(C)C)[C@@H](C)O)C(C)C)C(=O)N[C@@H](CO)C(=O)O [YPVTQPLAPVHNPIS]
